Experimental data taken from PubChem BioAssay (NCI).
“And” between values parts separate entries of the source, which are not always exact repeats. Identical values can stand only once.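 Cultured in 96-well plates, cells were exposed to test compound for 48 hours across five concentrations. The concentration for 50% growth inhibition is given as GI50. TGI: concentration producing complete growth inhibition.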

What was measured:
Experiment in all cases: NCI-60 cell line screen, 48 h
HCC-2998 colon = test system: HCC-2998 colon
LOX IMVI melanoma = test system: LOX IMVI melanoma
UO-31 renal = test system: UO-31 renal
HL-60(TB) leukemia = test system: HL-60(TB) leukemia
HCT-116 colon = test system: HCT-116 colon
SF-268 CNS = test system: SF-268 CNS
OVCAR-8 ovarian = test system: OVCAR-8 ovarian
SW-620 colon = test system: SW-620 colon
UACC-257 melanoma = test system: UACC-257 melanoma
SR leukemia = test system: SR leukemia

| SMILES | GI50 (HCC-2998 colon) | TGI (HCC-2998 colon) | GI50 (LOX IMVI melanoma) | TGI (LOX IMVI melanoma) | GI50 (UO-31 renal) | TGI (UO-31 renal) | GI50 (HL-60(TB) leukemia) | TGI (HL-60(TB) leukemia) | GI50 (HCT-116 colon) | TGI (HCT-116 colon) | GI50 (SF-268 CNS) | TGI (SF-268 CNS) | GI50 (OVCAR-8 ovarian) | TGI (OVCAR-8 ovarian) | GI50 (SW-620 colon) | TGI (SW-620 colon) | GI50 (UACC-257 melanoma) | TGI (UACC-257 melanoma) | GI50 (SR leukemia) | TGI (SR leukemia) |
| --- | --- | --- | --- | --- | --- | --- | --- | --- | --- | --- | --- | --- | --- | --- | --- | --- | --- | --- | --- | --- |
| COc1ccc2c(c1)C=CC1C2CC[C@]2(C)C(NC(=O)/C=C/c3ccc(O)c(O)c3)CCC12 (some centres undefined) | 14.4 µM | 34.6 µM | 6.45 µM | 20.2 µM | 10.2 µM | 27.3 µM | 5.01 µM | 23.8 µM | 4.49 µM | 17.4 µM | 17.2 µM | 33 µM | 14.2 µM | > 100 µM | 9.93 µM | 55.2 µM | 20.8 µM | 42.7 µM | 4060 nM | 17.1 µM |
| NC1=C(O)C(=O)C(c2c[nH]c3ccc(OCc4ccccc4)cc23)O1 (centres undefined) | – | > 76.3 µM | – | > 100 µM | – | > 100 µM | – | > 100 µM | – | > 100 µM | – | > 100 µM | – | > 100 µM | – | > 100 µM | – | > 100 µM | – | > 100 µM |
| CS(=O)(=O)CCNCc1ccoc1-c1ccc2ncnc(Nc3ccc(OCc4ccccc4)cc3)c2c1 | > 25 µM | > 25 µM | > 25 µM | > 25 µM | 2.26 µM | > 25 µM | 24.4 µM | > 25 µM | > 25 µM | > 25 µM | > 25 µM | > 25 µM | > 25 µM | > 25 µM | > 25 µM | > 25 µM | > 25 µM | > 25 µM | > 16900 nM | > 25 µM |
| CN1CCN(c2nc3cc(F)ccc3n3cccc23)CC1 | – | > 100 µM | – | 31.4 µM | – | > 100 µM | – | > 100 µM | – | > 100 µM | – | > 100 µM | – | > 100 µM | – | > 100 µM | – | 79 µM | – | > 100 µM |
| Cc1c(Cl)cccc1NC(=O)C(=O)c1c(O)c2ccc(O)cc2oc1=O | – | > 100 µM | – | > 100 µM | – | > 100 µM | – | > 100 µM | – | > 100 µM | – | > 100 µM | – | > 100 µM | – | > 100 µM | – | > 100 µM | – | > 100 µM |
| CCCC(=O)OC(OC(=O)CCC)c1ccc([N+](=O)[O-])o1 | – | 32.1 µM | – | 58.5 µM | – | 56.7 µM | – | 88.3 µM | – | 32.8 µM | – | > 100 µM | – | > 100 µM | – | 41.2 µM | – | 51.9 µM | – | 53.1 µM |
| CC(=O)[O][Hg][c]1s[c]([Hg][O]C(C)=O)[c]([Hg][O]C(C)=O)[c]1[Hg][O]C(C)=O | 14.6 µM | 40.1 µM | – | – | 4.61 µM | – | 5.12 µM | > 100 µM | 7.12 µM | > 100 µM | 5.92 µM | – | 2.93 µM | > 100 µM | 6.51 µM | – | – | – | 2270 nM | > 100 µM |
| C=CCO[C@H]1CC[C@@]2(C)C(CC[C@]3(C)C2CC=C2[C@@H]4[C@@H](C)C(C)CC[C@]4(C(=O)O)CCC23C)C1(C)C (some centres undefined) | – | 32.4 µM | – | 27.2 µM | – | 31.2 µM | – | 22 µM | – | 25.5 µM | – | 40.5 µM | – | 36.6 µM | – | 35.4 µM | – | 32.3 µM | – | 36.2 µM |
| Cc1ccc(C)c(NC(=O)C(=O)Nn2c(=S)[nH]c3ccccc3c2=O)c1 | – | > 100 µM | – | > 100 µM | – | > 100 µM | – | > 100 µM | – | > 100 µM | – | > 100 µM | – | > 100 µM | – | > 100 µM | – | > 100 µM | – | > 100 µM |
| C[C@H]1CC[C@@H]2[C@@H](C)[C@H]3[C@H](C[C@H]4[C@@H]5CC=C6C[C@@H](O)CC[C@]6(C)[C@H]5CC[C@]34C)N2C1 | – | > 100 µM | – | > 100 µM | – | > 100 µM | – | 54 µM | – | > 100 µM | – | > 100 µM | – | > 100 µM | – | > 100 µM | – | > 100 µM | – | 56.1 µM |
| N#C/C(=C1\OC(N)=C(c2ccc(Cl)cc2)C1=O)c1ccc(Cl)cc1 | – | 30.9 µM | – | 31.4 µM | – | 29.8 µM | – | 44.4 µM | – | 32.4 µM | – | > 100 µM | – | 26.3 µM | – | 25.9 µM | – | 29 µM | – | 54.7 µM |
| CC/C(C)=C1\CCC(CN(C)C)C1=O (centres undefined) | – | 39.9 µM | – | 40.7 µM | – | 35.4 µM | – | 43.7 µM | – | 31.7 µM | – | 43.2 µM | – | 76.1 µM | – | 53.4 µM | – | 31.4 µM | – | 43.2 µM |
| O=S(=O)(Nc1ccc(Cl)c(Cl)c1)c1ccc(-c2cnc(C3CC3)o2)cc1 | 1.81 µM | 10.3 µM | 0.586 µM | 19.3 µM | 0.498 µM | 15.9 µM | 0.274 µM | 3.47 µM | 0.458 µM | 13.9 µM | 1.26 µM | 23.8 µM | 1.23 µM | 20.1 µM | 0.336 µM | 15.3 µM | 4.62 µM | 27.1 µM | 122 nM | 62.6 µM |
| CN1C/C(=C\c2ccc(C(=O)O)cc2)C(=O)/C(=C/c2ccc(C(=O)O)cc2)C1 | – | > 100 µM | – | > 100 µM | – | > 100 µM | – | > 100 µM | – | > 100 µM | – | > 100 µM | – | > 100 µM | – | > 100 µM | – | > 100 µM | – | > 100 µM |
| COC(=N)CCCl | – | > 100 µM | – | – | – | > 100 µM | – | > 100 µM | – | > 100 µM | – | > 100 µM | – | > 100 µM | – | > 100 µM | – | > 100 µM | – | > 100 µM |
| C=Cc1cc(OC)c2c(c1)c(=O)oc1c2cc(OC)c2c(O)ccc(C3OC(C(C)O)C(O)C3O)c21 (centres undefined) | 0.013 µM | 0.0422 µM | – | – | 0.00262 µM | 0.0399 µM | 0.00216 µM | 0.0197 µM | 0.00298 µM | 0.205 µM | 0.00456 µM | 0.117 µM | 0.0114 µM | 0.212 µM | 0.0117 µM | 0.084 µM | 0.0269 µM | 0.0805 µM | 0.0483 nM and 0.209 nM | 0.00406 µM |
| O/N=C1\C(=C\c2ccc3c(c2)OCCO3)CCCC1C(NO)c1ccc2c(c1)OCCO2 (centres undefined) | – | 65.3 µM | – | 29.1 µM | – | 68.7 µM | – | 71 µM | – | 40.4 µM | – | 32 µM | – | > 100 µM | – | > 100 µM | – | 49.2 µM | – | 55.5 µM |
| CC(C)OP(=O)(OC(C)C)/C(C#N)=C/c1c[nH]c2ccccc12 | – | > 100 µM | – | > 100 µM | – | – | – | > 100 µM | – | > 100 µM | – | > 100 µM | – | > 100 µM | – | > 100 µM | – | > 100 µM | – | > 100 µM |
| C/C(=N\Nc1n[nH]c(=S)n1N)c1c(O)cc(C)oc1=O | – | > 100 µM | – | > 100 µM | – | > 100 µM | – | > 100 µM | – | > 100 µM | – | > 100 µM | – | > 100 µM | – | > 100 µM | – | > 100 µM | – | > 100 µM |
